Laboratory results taken from US20230406831A1, “COMPOUNDS AND METHODS OF INHIBITING BACTERIAL CHAPERONIN SYSTEMS” (THE TRUSTEES OF INDIANA UNIVERSITY, priority 2020, published 2023).
Like-named read-outs stand apart in the source and are kept apart here.

How the values were obtained:
[1] = target: T1, GroEL/ES (Escherichia coli, UniProt P0A6F5); assay: GroEL/ES-mediated dMDH refolding assay; type: biochemical, E. coli
T1 construct: made in house; host or cells: GroEL in E. coli DH5a; GroES in E. coli BL21 (DE3)
T1 sequence (P0A6F5 2-548): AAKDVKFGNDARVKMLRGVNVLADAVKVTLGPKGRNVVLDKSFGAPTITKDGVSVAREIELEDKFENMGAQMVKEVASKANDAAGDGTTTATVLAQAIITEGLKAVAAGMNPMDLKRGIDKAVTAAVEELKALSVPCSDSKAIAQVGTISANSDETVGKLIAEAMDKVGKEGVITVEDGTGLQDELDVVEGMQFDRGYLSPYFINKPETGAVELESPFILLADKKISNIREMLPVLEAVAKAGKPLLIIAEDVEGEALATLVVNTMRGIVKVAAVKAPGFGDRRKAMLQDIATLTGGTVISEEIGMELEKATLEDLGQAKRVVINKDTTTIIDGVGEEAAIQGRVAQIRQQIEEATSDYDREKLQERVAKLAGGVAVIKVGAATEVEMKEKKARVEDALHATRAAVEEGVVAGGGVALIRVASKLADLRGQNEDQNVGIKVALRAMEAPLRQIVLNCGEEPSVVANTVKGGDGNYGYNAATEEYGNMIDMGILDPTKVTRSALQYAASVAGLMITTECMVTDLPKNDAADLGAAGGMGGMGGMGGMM
Outline: (§1)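 Pre-formed chaperonin–denatured pig heart MDH complexes (50 nM GroEL or HSP60, 60 nM GroES or HSP10, 12 nM dMDH) refolded with 1 mM ATP and compound (100 μM–46 nM) at 37 °C, ~20-40 min for GroEL/ES or ~40-60 min for HSP60/10. After EDTA quench, MDH activity was read as NADH loss at A340. IC50 came from variable-slope regression.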

[2] = target: T2, HSP60/10 (Homo sapiens, UniProt P10809); assay: HSP60/10-mediated dMDH refolding assay; type: biochemical; conditions: 37° C., 1 mM ATP, read-out: Biochemical Assay IC50 HSP60/10-dMDH Refolding
T2 construct: octa-Histidine (His8) tag, TEV-cleavable (N, cleaved yes); made in house; host or cells: HSP60 in Rosetta 2 (DE3) E. coli; HSP10 in Rosetta 2 (DE3) pLysS
T2 sequence (P10809 27-573): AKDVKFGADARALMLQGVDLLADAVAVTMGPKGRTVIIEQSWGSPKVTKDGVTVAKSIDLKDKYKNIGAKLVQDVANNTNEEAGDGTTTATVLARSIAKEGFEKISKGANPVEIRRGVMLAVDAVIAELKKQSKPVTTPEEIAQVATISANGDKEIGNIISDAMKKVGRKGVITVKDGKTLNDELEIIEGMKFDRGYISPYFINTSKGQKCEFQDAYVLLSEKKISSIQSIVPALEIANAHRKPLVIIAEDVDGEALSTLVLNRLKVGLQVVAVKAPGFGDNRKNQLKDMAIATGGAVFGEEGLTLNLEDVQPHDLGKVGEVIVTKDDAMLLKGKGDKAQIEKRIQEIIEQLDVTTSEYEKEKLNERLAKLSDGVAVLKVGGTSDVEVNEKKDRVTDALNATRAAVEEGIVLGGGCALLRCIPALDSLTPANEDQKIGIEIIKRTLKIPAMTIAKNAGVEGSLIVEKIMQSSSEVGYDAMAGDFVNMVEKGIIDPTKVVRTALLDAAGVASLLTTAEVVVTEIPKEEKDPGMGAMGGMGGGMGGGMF
Outline: as §1

[3] = target: T3, native MDH (Sus scrofa, UniProt P00346); assay: Native MDH enzymatic activity counter-screen; type: biochemical, pig; conditions: compounds added after refolding and EDTA quench, read-out: Biochemical Assay IC50 Native MDH Activity
T3 construct: soluble pig heart MDH from Roche, product #10127248001; purchased Roche 10127248001; host or cells: pig heart
T3 sequence (P00346 25-338): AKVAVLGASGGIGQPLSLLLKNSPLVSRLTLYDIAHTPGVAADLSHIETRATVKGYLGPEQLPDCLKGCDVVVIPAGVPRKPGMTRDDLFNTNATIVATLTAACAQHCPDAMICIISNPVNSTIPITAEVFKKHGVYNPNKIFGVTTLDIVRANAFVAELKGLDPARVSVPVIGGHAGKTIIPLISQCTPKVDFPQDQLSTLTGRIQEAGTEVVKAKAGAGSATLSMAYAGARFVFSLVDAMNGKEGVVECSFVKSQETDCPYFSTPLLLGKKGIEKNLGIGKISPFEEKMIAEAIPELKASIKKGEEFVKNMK
Protocol: Counter-screening compounds for inhibition of native MDH enzymatic activity.
Reagent Preparations & Assay Protocol: This assay was performed as described above for the GroEL/ES-dMDH refolding assay; however, the assay protocol differed in the sequence of compound addition to the assay plates. The refolding reactions were allowed to proceed for 45 min at 37° C. in the absence of test compounds (complete refolding of MDH occurs), then quenched with the EDTA stock. Compounds were then pin-transferred into the plates after the EDTA quenching step; thus, compounds effects are only possible by inhibiting the fully-refolded MDH reporter substrate. Next enzymatic activity of the refolded MDH was initiated by addition of 20 μL MDH enzymatic assay stock (20 mM sodium mesoxalate and 2.4 mM NADH in reaction buffer, 50 mM Tris pH 7.4, 50 mM KCl, 1 mM DTT), and followed by measuring the NADH absorbance in each well at 340 nm using a Molecular Devices SpectraMax Plus384 microplate reader
A340 nm measurements were recorded at 0.5 minutes (start point) and at successive time points until the amount of NADH consumed reached ˜90% (end point, generally between 20-35 minutes). Compounds were tested in 8-point, 3-fold dilution series (62.5 μM to 29 nM during the reporter reaction) in clear, flat-bottom 384-well microtiter plates.
DMSO was used as a negative control, and previously discovered native MDH inhibitors were used as positive controls. IC50 values for the test compounds were obtained by plotting the % inhibition results in GraphPad Prism 6 and analyzing by non-linear regression using the log (inhibitor) vs. response (variable slope) equation. Results presented represent the averages of IC50 values obtained from at least quadriplicate (duplicate of duplicate) replicates.

SMILES: Cc1cc(C(C#N)c2ccc(Cl)cc2)c(Cl)cc1NC(=O)c1ccccc1 (stereo not drawn) [Compound 82, N-(5-chloro-4-((4-chlorophenyl)(cyano)methyl)-2-methylphenyl)benzamide]
- IC50 [1]: 74 µM
- IC50 ([2]; Table 2): > 100 µM
- IC50 ([3]; Table 2): > 63 µM

SMILES: COc1ccc(Br)cc1C(=O)Nc1cc(Cl)c(C(C#N)c2ccc(Cl)cc2)cc1C (stereo not drawn) [Compound 49, 5-bromo-N-(5-chloro-4-((4-chlorophenyl)(cyano)methyl)-2-methylphenyl)-2-methoxybenzamide]
- IC50 [1]: 71 µM
- IC50 ([2]; Table 2): > 100 µM
- IC50 ([3]; Table 2): > 63 µM

SMILES: N#CCc1ccc(NC(=O)c2cc(Cl)ccc2O)cc1 [Compound 111, 5-chloro-N-(4-(cyanomethyl)phenyl)-2-hydroxybenzamide]
- IC50 [1]: > 100 µM
- IC50 ([2]; Table 3): > 100 µM
- IC50 ([3]; Table 3): > 63 µM

SMILES: O=C(Nc1ccc(OCc2ccccc2)cc1)c1cc(Cl)ccc1O [Compound 103, N-(4-(benzyloxy)phenyl)-5-chloro-2-hydroxybenzamide]
- IC50 [1]: 44 µM
- IC50 ([2]; Table 3): > 100 µM
- IC50 ([3]; Table 3): > 63 µM

SMILES: Cc1cc(C(C#N)c2ccc(Cl)cc2)c(Cl)cc1NC(=O)c1ccccc1F (stereo not drawn) [Compound 79, N-(5-chloro-4-((4-chlorophenyl)(cyano)methyl)-2-methylphenyl)-2-fluorobenzamide]
- IC50 [1]: 89 µM
- IC50 ([2]; Table 2): > 100 µM
- IC50 ([3]; Table 2): > 63 µM

SMILES: Cc1cc(C(C#N)c2ccc(Cl)cc2)c(Cl)cc1NC(=O)c1cccc(Cl)c1O (stereo not drawn) [Compound 54, 3-chloro-N-(5-chloro-4-((4-chlorophenyl)(cyano)methyl)-2-methylphenyl)-2-hydroxybenzamide]
- IC50 [1]: 14 µM
- IC50 ([2]; Table 2): 6.4 µM
- IC50 ([3]; Table 2): 57 µM

SMILES: O=C(Nc1ccc(Sc2nc3ccccc3s2)c(Cl)c1)c1cc(Cl)ccc1O [Compound 95, N-(4-(benzo[d]thiazol-2-ylthio)-3-chlorophenyl)-5-chloro-2-hydroxybenzamide]
- IC50 [1]: 21 µM
- IC50 ([2]; Table 3): 39 µM
- IC50 ([3]; Table 3): > 63 µM

SMILES: Cc1cc(C(C#N)c2ccc(Cl)cc2)c(Cl)cc1NC(=O)c1ccc([N+](=O)[O-])cc1 (stereo not drawn) [Compound 69, N-(5-chloro-4-((4-chlorophenyl)(cyano)methyl)-2-methylphenyl)-4-nitrobenzamide]
- IC50 [1]: 37 µM
- IC50 ([2]; Table 2): > 100 µM
- IC50 ([3]; Table 2): > 63 µM

SMILES: Cc1cc(C(C#N)c2ccc(Cl)cc2)c(Cl)cc1NC(=O)c1ccccc1Cl (stereo not drawn) [Compound 76, 2-chloro-N-(5-chloro-4-((4-chlorophenyl)(cyano)methyl)-2-methylphenyl)benzamide]
- IC50 [1]: 54 µM
- IC50 ([2]; Table 2): > 100 µM
- IC50 ([3]; Table 2): > 63 µM

SMILES: COc1ccc(Cl)cc1C(=O)Nc1ccc(Sc2nc3ccccc3s2)cc1 [Compound 96, N-(4-(benzo[d]thiazol-2-ylthio)phenyl)-5-chloro-2-methoxybenzamide]
- IC50 [1]: 59 µM
- IC50 ([2]; Table 3): > 100 µM
- IC50 ([3]; Table 3): > 63 µM

SMILES: Cc1cc(C(C#N)c2ccc(Cl)cc2)c(Cl)cc1NC(=O)c1ccc(Cl)cc1O (stereo not drawn) [Compound 56, 4-chloro-N-(5-chloro-4-((4-chlorophenyl)(cyano)methyl)-2-methylphenyl)-2-hydroxybenzamide]
- IC50 [1]: 57 µM
- IC50 ([2]; Table 2): 17 µM
- IC50 ([3]; Table 2): 59 µM

SMILES: Cc1cc(C(C#N)c2ccc(Cl)cc2)c(Cl)cc1NC(=O)c1ccc(Br)cc1 (stereo not drawn) [Compound 75, 4-bromo-N-(5-chloro-4-((4-chlorophenyl)(cyano)methyl)-2-methylphenyl)benzamide]
- IC50 [1]: 58 µM
- IC50 ([2]; Table 2): > 100 µM
- IC50 ([3]; Table 2): > 63 µM

SMILES: COc1ccc(NC(=O)c2cc(Cl)ccc2OC)cc1 [Compound 112, 5-chloro-2-methoxy-N-(4-methoxyphenyl)benzamide]
- IC50 [1]: > 100 µM
- IC50 ([2]; Table 3): > 100 µM
- IC50 ([3]; Table 3): > 63 µM

SMILES: Cc1cc(C(C#N)c2ccc(Cl)cc2)c(Cl)cc1NC(=O)c1ccc(Cl)cc1 (stereo not drawn) [Compound 78, 4-chloro-N-(5-chloro-4-((4-chlorophenyl)(cyano)methyl)-2-methylphenyl)benzamide]
- IC50 [1]: 63 µM
- IC50 ([2]; Table 2): > 100 µM
- IC50 ([3]; Table 2): > 63 µM

SMILES: O=C(Nc1ccc(Oc2ccccc2)c(Cl)c1)c1cc(Cl)ccc1O [Compound 91, 5-chloro-N-(3-chloro-4-phenoxyphenyl)-2-hydroxybenzamide]
- IC50 [1]: 51 µM
- IC50 ([2]; Table 3): 22 µM
- IC50 ([3]; Table 3): > 63 µM

SMILES: Cc1cc(C(C#N)c2ccc(Cl)cc2)c(Cl)cc1NC(=O)c1cccc([N+](=O)[O-])c1 (stereo not drawn) [Compound 68, N-(5-chloro-4-((4-chlorophenyl)(cyano)methyl)-2-methylphenyl)-3-nitrobenzamide]
- IC50 [1]: 43 µM
- IC50 ([2]; Table 2): > 100 µM
- IC50 ([3]; Table 2): > 63 µM

SMILES: O=C(Nc1ccc(O)cc1)c1cc(Cl)ccc1O [Compound 115, 5-chloro-2-hydroxy-N-(4-hydroxyphenyl)benzamide]
- IC50 [1]: > 100 µM
- IC50 ([2]; Table 3): > 100 µM
- IC50 ([3]; Table 3): > 63 µM

SMILES: O=C(Nc1ccc(Oc2ccc(Cl)cc2)cc1)c1cc(Cl)ccc1O [Compound 89, 5-chloro-N-(4-(4-chlorophenoxy)phenyl)-2-hydroxybenzamide]
- IC50 [1]: 46 µM
- IC50 ([2]; Table 3): 45 µM
- IC50 ([3]; Table 3): > 63 µM

SMILES: Cc1cc(C(C#N)c2ccc(Cl)cc2)c(Cl)cc1NC(=O)c1ccc(N)cc1 (stereo not drawn) [Compound 72, 4-amino-N-(5-chloro-4-((4-chlorophenyl)(cyano)methyl)-2-methylphenyl)benzamide]
- IC50 [1]: 47 µM
- IC50 ([2]; Table 2): 73 µM
- IC50 ([3]; Table 2): > 63 µM

SMILES: Cc1ccc(O)c(C(=O)Nc2cc(Cl)c(C(C#N)c3ccc(Cl)cc3)cc2C)c1 (stereo not drawn) [Compound 60, N-(5-chloro-4-((4-chlorophenyl)(cyano)methyl)-2-methylphenyl)-2-hydroxy-5-methylbenzamide]
- IC50 [1]: 41 µM
- IC50 ([2]; Table 2): 85 µM
- IC50 ([3]; Table 2): > 63 µM

SMILES: O=C(Nc1ccc(Sc2nc3ccccc3s2)c(Cl)c1)c1cc(Br)cc(Br)c1O [Compound 1, reference compound]
- IC50 [1]: 2 µM
- IC50 ([2]; Table 1): 3.7 µM
- IC50 ([3]; Table 1): 6.3 µM

SMILES: COc1ccc(Cl)cc1C(=O)Nc1ccc(Oc2ccc(Cl)cc2)cc1 [Compound 88, 5-chloro-N-(4-(4-chlorophenoxy)phenyl)-2-methoxybenzamide]
- IC50 [1]: > 100 µM
- IC50 ([2]; Table 3): > 100 µM
- IC50 ([3]; Table 3): > 63 µM

SMILES: Cc1cc(C(C#N)c2ccc(Cl)cc2)c(Cl)cc1NC(=O)c1cc(Br)ccc1O (stereo not drawn) [Compound 50, 5-bromo-N-(5-chloro-4-((4-chlorophenyl)(cyano)methyl)-2-methylphenyl)-2-hydroxybenzamide]
- IC50 [1]: 23 µM
- IC50 ([2]; Table 2): 20 µM
- IC50 ([3]; Table 2): 55 µM

SMILES: Cc1cc(C(C#N)c2ccc(Cl)cc2)c(Cl)cc1NC(=O)c1cccc(O)c1 (stereo not drawn) [Compound 65, N-(5-chloro-4-((4-chlorophenyl)(cyano)methyl)-2-methylphenyl)-3-hydroxybenzamide]
- IC50 [1]: 55 µM
- IC50 ([2]; Table 2): 33 µM
- IC50 ([3]; Table 2): > 63 µM

SMILES: COc1ccc(Cl)cc1C(=O)Nc1ccc(C(=O)O)cc1 [Compound 108, 4-(5-chloro-2-methoxybenzamido)benzoic acid]
- IC50 [1]: > 100 µM
- IC50 ([2]; Table 3): > 100 µM
- IC50 ([3]; Table 3): > 63 µM

SMILES: COc1ccc(Cl)cc1C(=O)Nc1ccc(Oc2ccccc2)c(Cl)c1 [Compound 90, 5-chloro-N-(3-chloro-4-phenoxyphenyl)-2-methoxybenzamide]
- IC50 [1]: > 100 µM
- IC50 ([2]; Table 3): > 100 µM
- IC50 ([3]; Table 3): > 63 µM

SMILES: COc1ccc(Cl)cc1C(=O)Nc1ccc(O)cc1 [Compound 114, 5-chloro-N-(4-hydroxyphenyl)-2-methoxybenzamide]
- IC50 [1]: > 100 µM
- IC50 ([2]; Table 3): > 100 µM
- IC50 ([3]; Table 3): > 63 µM
